The assay has as its target T1, human MDM2 (GST-hMDM2 1-188), interaction with biotinylated-p53 (1-83) (Homo sapiens, UniProt Q00987).
T1 construct: Amino acid residues 1-188 of human MDM2 were expressed; made in house; host or cells: Escherichia coli
Briefly: improved HTRF assay (HTRF2 assay), inhibition of HDM2-p53 interaction. The class given is binding. As to conditions: 0.2 nM GST-hMDM2, 0.5 nM biotinylated-p53, 100 mM KF. In a few lines:
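GST-hMDM2 preincubated 20 min at RT with serially diluted compound, then biotinylated p53 (1-83, E. coli) added for 60 min. Detection with SA-XLent, anti-GST cryptate and KF, equilibrated >4 h; final DMSO 2%. TR-FRET read; % inhibition calculated relative to nutlin-3.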
T1 sequence (Q00987 1-188): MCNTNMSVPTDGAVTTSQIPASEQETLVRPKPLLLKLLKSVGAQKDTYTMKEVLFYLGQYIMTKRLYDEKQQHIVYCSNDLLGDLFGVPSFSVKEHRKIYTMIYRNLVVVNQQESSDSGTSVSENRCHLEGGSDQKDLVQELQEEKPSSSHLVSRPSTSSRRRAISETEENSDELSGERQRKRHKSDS
For orientation: IC50 means the midpoint of a concentration-inhibition curve. `O=C(O)C[C@H]1O[C@H](c2cccc(Cl)c2)[C@@H](c2ccc(Cl)cc2)N([C@H](CS(=O)(=O)Nc2ccccc2F)C2CC2)C1=O` (single isomer, unassigned) [Example 295, 2-((2R,5R,6R)-6-(3-Chlorophenyl)-5-(4-chlorophenyl)-4-((S)-1-cyclopropyl-2-(N-(2-fluorophenyl)sulfamoyl)ethyl)-3-oxomorpholin-2-yl)acetic acid or 2-((2S,5R,6R)-6-(3-chlorophenyl)-5-(4-chlorophenyl)-4-((S)-1-cyclopropyl-2-(N-(2-fluorophenyl)sulfamoyl)ethyl)-3-oxomorpholin-2-yl)acetic acid]: half-maximal inhibition (IC50) required 2 nM.

Take `CC[C@@H](CS(=O)(=O)C(C)(C)C)N1C(=O)[C@@H](CC(=O)O)O[C@H](c2cccc(Cl)c2)[C@H]1c1ccc(Cl)c(F)c1` (single isomer, unassigned) [Example 182, 2-((2R,5R,6R)-4-((S)-1-(tert-butylsulfonyl)butan-2-yl)-5-(4-chloro-3-fluorophenyl)-6-(3-chlorophenyl)-3-oxomorpholin-2-yl)acetic acid or 2-((2S,5R,6R)-4-((S)-1-(tert-butylsulfonyl)butan-2-yl)-5-(4-chloro-3-fluorophenyl)-6-(3-chlorophenyl)-3-oxomorpholin-2-yl)acetic acid]: the IC50 stood at 4 nM.

Turning to `CC[C@@H]([C@H](C)S(=O)(=O)C(C)C)N1C(=O)[C@@H](CC(=O)O)O[C@H](c2cccc(Cl)c2)[C@H]1c1ccc(Cl)cc1` (single isomer, unassigned) [Example 416], the IC50 was 4 nM.

Turning to `CC[C@@H](CN(c1ncccc1F)S(=O)(=O)C1CC1)N1C(=O)[C@@H](CC(=O)O)O[C@H](c2cccc(Cl)c2)[C@H]1c1ccc(Cl)cc1` (single isomer, unassigned) [Example 177, 2-((2R,5R,6R)-6-(3-chlorophenyl)-5-(4-chlorophenyl)-4-((S)-1-(N-(3-fluoropyridin-2-yl)cyclopropanesulfonamido)butan-2-yl)-3-oxomorpholin-2-yl)acetic acid or 2-((2S,5R,6R)-6-(3-chlorophenyl)-5-(4-chlorophenyl)-4-((S)-1-(N-(3-fluoropyridin-2-yl)cyclopropanesulfonamido)butan-2-yl)-3-oxomorpholin-2-yl)acetic acid], the IC50 is < 1 nM.

As to `CC[C@@H]([C@H](C)S(=O)(=O)C(C)C)N1C(=O)[C@@H](CC(=O)O)O[C@H](c2cccc(Cl)c2)[C@H]1c1ccc(Cl)cc1` (single isomer, unassigned) [Example 414], 1 nM corresponded to half-maximal inhibition (IC50).

Take `NS(=O)(=O)C[C@H]1O[C@H](c2cccc(Cl)c2)[C@@H](c2ccc(Cl)cc2)N([C@H](CN(c2ccccc2F)S(=O)(=O)C2CC2)C2CC2)C1=O` (single isomer, unassigned) [Example 409, N-((S)-2-((2R,3R,6S)-2-(3-Chlorophenyl)-3-(4-chlorophenyl)-5-oxo-6-(sulfamoylmethyl)morpholino)-2-cyclopropylethyl)-N-(2-fluorophenyl)cyclopropanesulfonamide or N-((S)-2-((2S,3R,6S)-2-(3-chlorophenyl)-3-(4-chlorophenyl)-5-oxo-6-(sulfamoylmethyl)morpholino)-2-cyclopropylethyl)-N-(2-fluorophenyl)cyclopropanesulfonamide]: the IC50 is < 1 nM.

For `CC1(C)CCCN1S(=O)(=O)C[C@H](C1CC1)N1C(=O)[C@@H](CC(=O)O)O[C@H](c2cccc(Cl)c2)[C@H]1c1ccc(Cl)cc1` (single isomer, unassigned) [Example 307, 2-((2R,5R,6R)-6-(3-Chlorophenyl)-5-(4-chlorophenyl)-4-((S)-1-cyclopropyl-2-((2,2-dimethylpyrrolidin-1-yl)sulfonyl)ethyl)-3-oxomorpholin-2-yl)acetic acid or 2-((2R,5R,6R)-6-(3-chlorophenyl)-5-(4-chlorophenyl)-4-((S)-1-cyclopropyl-2-((2,2-dimethylpyrrolidin-1-yl)sulfonyl)ethyl)-3-oxomorpholin-2-yl)acetic acid], the 50% inhibitory concentration (IC50) is < 1 nM.
